Tests used:
[1] = biological target: T1, HDAC6 human recombinant (Homo sapiens, UniProt Q9UBN7); experiment: HDAC enzyme activity inhibition (in vitro), HDAC6 assay; type: biochemical; conditions: samples at 0.1, 1, 10, 100 and 1000 nM; 37° C. 60 minutes; fluorescence Ex 390, Em 460; read-out: HDAC6 IC50
T1 construct: purchased Calbiochem 382180
T1 sequence (Q9UBN7 1-1215): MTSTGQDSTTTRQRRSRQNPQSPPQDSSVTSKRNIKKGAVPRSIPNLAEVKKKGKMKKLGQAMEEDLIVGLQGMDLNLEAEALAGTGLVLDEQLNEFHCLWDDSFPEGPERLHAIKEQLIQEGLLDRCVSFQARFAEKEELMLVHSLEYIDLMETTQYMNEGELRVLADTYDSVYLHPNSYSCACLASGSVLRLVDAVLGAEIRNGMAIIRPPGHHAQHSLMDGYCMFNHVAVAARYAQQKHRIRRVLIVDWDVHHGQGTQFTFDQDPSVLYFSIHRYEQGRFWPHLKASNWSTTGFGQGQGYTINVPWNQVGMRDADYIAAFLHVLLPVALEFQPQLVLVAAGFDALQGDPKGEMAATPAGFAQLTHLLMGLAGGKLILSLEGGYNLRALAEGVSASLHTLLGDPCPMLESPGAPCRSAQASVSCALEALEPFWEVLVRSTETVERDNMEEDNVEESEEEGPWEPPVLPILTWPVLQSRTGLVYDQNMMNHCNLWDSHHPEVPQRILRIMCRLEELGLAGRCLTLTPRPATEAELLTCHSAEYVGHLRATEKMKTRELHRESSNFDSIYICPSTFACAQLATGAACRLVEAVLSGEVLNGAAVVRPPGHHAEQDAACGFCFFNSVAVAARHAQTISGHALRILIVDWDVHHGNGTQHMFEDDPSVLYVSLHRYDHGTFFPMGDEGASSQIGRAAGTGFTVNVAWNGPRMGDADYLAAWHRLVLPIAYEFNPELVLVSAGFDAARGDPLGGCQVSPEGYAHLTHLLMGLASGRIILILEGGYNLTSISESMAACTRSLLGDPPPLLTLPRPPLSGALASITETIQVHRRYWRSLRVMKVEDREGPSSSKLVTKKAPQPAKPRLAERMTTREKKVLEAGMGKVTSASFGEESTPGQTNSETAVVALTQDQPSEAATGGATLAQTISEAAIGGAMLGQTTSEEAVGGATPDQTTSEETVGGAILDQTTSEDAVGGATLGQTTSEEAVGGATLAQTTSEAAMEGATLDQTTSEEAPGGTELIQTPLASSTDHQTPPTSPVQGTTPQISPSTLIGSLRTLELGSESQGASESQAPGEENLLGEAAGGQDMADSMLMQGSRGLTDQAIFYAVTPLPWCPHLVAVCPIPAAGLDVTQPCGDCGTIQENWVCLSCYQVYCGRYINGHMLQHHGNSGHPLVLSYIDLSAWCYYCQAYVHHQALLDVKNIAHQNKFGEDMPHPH
In short: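 HDAC6 human recombinant enzyme with fluorimetric substrate; […]. Reaction 60 min at 37° C, then developer 30 min at 37° C; fluorescence read at Ex 390/Em 460.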

[2] = biological target: T2, HDAC1 (Homo sapiens, UniProt Q13547); experiment: HDAC enzyme activity inhibition (in vitro), HDAC1 Fluorimetric Drug Discovery Assay Kit; type: biochemical; conditions: samples at 100, 1000 and 10000 nM; 37° C. 60 minutes; fluorescence Ex 390, Em 460; read-out: HDAC1 IC50
T2 construct: purchased Enzolifesciences BML-AK511
T2 sequence (Q13547 whole entry): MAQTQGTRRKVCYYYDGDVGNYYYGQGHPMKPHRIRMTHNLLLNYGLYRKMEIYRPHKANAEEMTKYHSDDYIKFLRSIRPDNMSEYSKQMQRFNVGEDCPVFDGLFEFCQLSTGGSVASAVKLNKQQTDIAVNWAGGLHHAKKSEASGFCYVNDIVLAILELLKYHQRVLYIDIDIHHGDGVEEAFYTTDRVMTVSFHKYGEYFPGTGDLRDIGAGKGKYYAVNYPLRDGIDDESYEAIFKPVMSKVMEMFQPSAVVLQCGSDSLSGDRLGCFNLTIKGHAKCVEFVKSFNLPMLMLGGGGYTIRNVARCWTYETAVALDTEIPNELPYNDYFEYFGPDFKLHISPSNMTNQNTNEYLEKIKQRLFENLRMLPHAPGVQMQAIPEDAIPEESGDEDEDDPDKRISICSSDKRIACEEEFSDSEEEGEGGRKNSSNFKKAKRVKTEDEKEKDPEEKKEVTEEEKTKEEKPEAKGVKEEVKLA
In short: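 Compounds at 100, 1000, 10000 nM (HDAC1) or 0.1, 1, 10, 100, 1000 nM (HDAC6); 37° C, 60 min; developer, 37° C, 30 min; fluorescence Ex 390/Em 460.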

| IC50 [1] [nM] | IC50 [2] [nM] | SMILES |
| --- | --- | --- |
| 16 | > 10000 | CN1CCN(c2ncc(-c3cc4c(cc3F)n(Cc3ccc(-c5nnc(C(F)F)o5)cn3)c(=O)n4C)cn2)CC1 [Compound 342, 1-((5-(5-(difluoromethyl)-1,3,4-oxadiazole-2-yl)pyridine-2-yl)methyl)-6-fluoro-3-methy 1-5-(2-(4-methylpiperazine-1-yl)pyrimidine-5-yl)-1,3-dihydro-2H-benzo[d]imidazole-2-one] |
| 19 | > 10000 | Cn1c(=O)n(Cc2ccc(-c3nnc(C(F)F)o3)cn2)c2cc(F)c(-c3cnc(N4CCN(C5COC5)CC4)nc3)cc21 [Compound 343, 1-((5-(5-(difluoromethyl)-1,3,4-oxadiazole-2-yl)pyridine-2-yl)methyl)-6-fluoro-3-methy 1-5-(2-(4-(oxetan-3-yl)piperazine-1-yl)pyrimidine-5-yl)-1,3-dihydro-2H-benzo[d]imidazole-2-one] |
| 671 | > 10000 | CC(C)(C)OC(=O)N1CCN(c2ccc(-c3cc4oc(=O)n(Cc5ccc(-c6nnc(C(F)F)o6)cn5)c4cc3F)cn2)CC1 [Compound 344, tert-butyl 4-(5-(3-((5-(5-(difluoromethyl)-1,3,4-oxadiazole-2-yl)pyridine-2-yl)methyl)-5-fluoro-2-oxo-2,3-dihydrobenzo[d]oxazole-6-yl)pyridine-2-yl)piperazine-1-carboxylate] |
| 22 | > 10000 | O=c1oc2cc(-c3ccc(N4CCNCC4)nc3)c(F)cc2n1Cc1ccc(-c2nnc(C(F)F)o2)cn1 [Compound 345, 3-((5-(5-(difluoromethyl)-1,3,4-oxadiazole-2-yl)pyridine-2-yl)methyl)-5-fluoro-6-(6-(piperazine-1-yl)pyridine-3-yl)benzo[d]oxazole-2(3H)-one] |
| 47 | > 10000 | CN1CCN(c2ccc(-c3cc4oc(=O)n(Cc5ccc(-c6nnc(C(F)F)o6)cn5)c4cc3F)cn2)CC1 [Compound 346, 3-((5-(5-(difluoromethyl)-1,3,4-oxadiazole-2-yl)pyridine-2-yl)methyl)-5-fluoro-6-(6-(4-methylpiperazine-1-yl)pyridine-3-yl)benzo[d]oxazole-2(3H)-one] |
| 62 | > 10000 | CCN1CCN(c2ccc(-c3cc4oc(=O)n(Cc5ccc(-c6nnc(C(F)F)o6)cn5)c4cc3F)cn2)CC1 [Compound 347, 3-((5-(5-(difluoromethyl)-1,3,4-oxadiazole-2-yl)pyridine-2-yl)methyl)-6-(6-(4-ethylpiperazine-1-yl)pyridine-3-yl)-5-fluorobenzo[d]oxazole-2(3H)-one] |
| 25 | > 10000 | O=c1oc2cc(-c3cncc(N4CCOCC4)c3)c(F)cc2n1Cc1ccc(-c2nnc(C(F)F)o2)cn1 [Compound 348, 3-((5-(5-(difluoromethyl)-1,3,4-oxadiazole-2-yl)pyridine-2-yl)methyl)-5-fluoro-6-(5-morpholinopyridine-3-yl)benzo[d]oxazole-2(3H)-one] |
| 55 | > 10000 | CC(C)N1CCN(c2ccc(-c3cc4oc(=O)n(Cc5ccc(-c6nnc(C(F)F)o6)cn5)c4cc3F)cn2)CC1 [Compound 349, 3-((5-(5-(difluoromethyl)-1,3,4-oxadiazole-2-yl)pyridine-2-yl)methyl)-5-fluoro-6-(6-(4-isopropylpiperazine-1-yl)pyridine-3-yl)benzo[d]oxazole-2(3H)-one] |
| 33 | > 10000 | O=c1oc2cc(-c3ccc(N4CCN(C5COC5)CC4)nc3)c(F)cc2n1Cc1ccc(-c2nnc(C(F)F)o2)cn1 [Compound 350, 3-((5-(5-(difluoromethyl)-1,3,4-oxadiazole-2-yl)pyridine-2-yl)methyl)-5-fluoro-6-(6-(4-(oxetan-3-yl)piperazine-1-yl)pyridine-3-yl)benzo[d]oxazole-2(3H)-one] |
| 151 | > 10000 | O=c1oc2cc(-c3ccc(N4CCN(CC(F)(F)F)CC4)nc3)c(F)cc2n1Cc1ccc(-c2nnc(C(F)F)o2)cn1 [Compound 351, 3-((5-(5-(difluoromethyl)-1,3,4-oxadiazole-2-yl)pyridine-2-yl)methyl)-5-fluoro-6-(6-(4-(2,2,2-trifluoroethyl)piperazine-1-yl)pyridine-3-yl)benzo[d]oxazole-2(3H)-one] |
| 170 | > 10000 | CC(C)(C)OC(=O)N1CCC(n2cc(-c3ccc4c(c3)sc(=O)n4Cc3ccc(-c4nnc(C(F)F)o4)cn3)cn2)CC1 [Compound 352, tert-butyl 4-(4-(3-((5-(5-(difluoromethyl)-1,3,4-oxadiazole-2-yl)pyridine-2-yl)methyl)-2-oxo-2,3-dihydrobenzo[d]thiazole-6-yl)-1H-pyrazole-1-yl)piperidine-1-carboxylate] |
| 19 | > 10000 | CN1CCC(n2cc(-c3ccc4c(c3)sc(=O)n4Cc3ccc(-c4nnc(C(F)F)o4)cn3)cn2)CC1 [Compound 353, 3-((5-(5-(difluoromethyl)-1,3,4-oxadiazole-2-yl)pyridine-2-yl)methyl)-6-(1-(1-methylpiperidine-4-yl)-1H-pyrazole-4-yl)benzo[d]thiazole-2(3H)-one] |
| 16 | > 10000 | CC(C)N1CCC(n2cc(-c3ccc4c(c3)sc(=O)n4Cc3ccc(-c4nnc(C(F)F)o4)cn3)cn2)CC1 [Compound 354, 3-((5-(5-(difluoromethyl)-1,3,4-oxadiazole-2-yl)pyridine-2-yl)methyl)-6-(1-(1-isopropylpiperidine-4-yl)-1H-pyrazole-4-yl)benzo[d]thiazole-2(3H)-one] |
| 23 | > 10000 | O=c1sc2cc(-c3cnn(C4CCN(C5COC5)CC4)c3)ccc2n1Cc1ccc(-c2nnc(C(F)F)o2)cn1 [Compound 355, 3-((5-(5-(difluoromethyl)-1,3,4-oxadiazole-2-yl)pyridine-2-yl)methyl)-6-(1-(1-(oxetan-3-yl)piperidine-4-yl)-1H-pyrazole-4-yl)benzo[d]thiazole-2(3H)-on] |
| 84 | > 10000 | O=c1sc2cc(-c3cnn(C4CCN(CC(F)(F)F)CC4)c3)ccc2n1Cc1ccc(-c2nnc(C(F)F)o2)cn1 [Compound 356, 3-((5-(5-(difluoromethyl)-1,3,4-oxadiazole-2-yl)pyridine-2-yl)methyl)-6-(1-(1-(2,2,2-trifluoroethyl)piperidine-4-yl)-1H-pyrazole-4-yl)benzo[d]thiazole-2(3H)-one] |
| 42 | > 10000 | O=c1sc2cc(-c3cnn(C4CCN(CC5(F)CC5)CC4)c3)ccc2n1Cc1ccc(-c2nnc(C(F)F)o2)cn1 [Compound 357, 3-((5-(5-(difluoromethyl)-1,3,4-oxadiazole-2-yl)pyridine-2-yl)methyl)-6-(1-(1-((1-fluorocyclopropyl)methyl)piperidine-4-yl)-1H-pyrazole-4-yl)benzo[d]thiazole-2(3H)-one] |
| 130 | > 10000 | CC(C)(C)OC(=O)N1CCC(n2cc(-c3cc4oc(=O)n(Cc5ccc(-c6nnc(C(F)F)o6)cn5)c4cc3F)cn2)CC1 [Compound 358, tert-butyl 4-(4-(3-((5-(5-(difluoromethyl)-1,3,4-oxadiazole-2-yl)pyridine-2-yl)methyl)-5-fluoro-2-oxo-2,3-dihydrobenzo[d]oxazole-6-yl)-1H-pyrazole-1-yl)piperidine-1-carboxylate] |
| 33 | > 10000 | O=c1oc2cc(-c3cnn(C4CCNCC4)c3)c(F)cc2n1Cc1ccc(-c2nnc(C(F)F)o2)cn1 [Compound 359, 3-((5-(5-(difluoromethyl)-1,3,4-oxadiazole-2-yl)pyridine-2-yl)methyl)-5-fluoro-6-(1-(piperidine-4-yl)-1H-pyrazole-4-yl)benzo[d]oxazole-2(3H)-one] |

Source: patent US20230092890A1, “1, 3, 4-Oxadiazole derivative compounds as histone deacetylase 6 inhibitor, and the pharmaceutical composition comprising the same” (Chong Kun Dang Pharmaceutical Corp., priority 2019, published 2023)
